Data on 1 compound can be found in the NIST ThermoML archive (doi:10.1021/acs.jced.7b00065).

± gives the expanded uncertainty stated by the source.

Data set [1] can be described thus: Molar enthalpy of transition or fusion. The conditions noted are these: Crystal; DSC.
The conditions of data set [2]: Crystal; DTA.

As for `Cn1c(=O)c2[nH]cnc2n(C)c1=O` [3,7-dihydro-1,3-dimethyl-1H-purine-2,6-dione], the “Molar enthalpy of transition or fusion” value in data set [1] was found to be 6.91 ± 0.43 kcal/mol. Also, the Normal melting temperature in data set [2] was 272.03 ± 1.1 °C.
